From PubChem BioAssay (NCI)
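Step 1: Grow cells in 96-well plates. Step 2: Expose to compound for 48 hours at 5 concentrations. Step 3: Interpolate endpoints linearly; if unreached, use highest concentration. At the TGI there is no net growth.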

Tests used:
Assay in all cases: NCI-60 cell line screen, 48 h
[1] = tested on: DU-145 prostate
[2] = tested on: NCI/ADR-RES ovarian
[3] = tested on: HL-60(TB) leukemia
[4] = tested on: SK-OV-3 ovarian
[5] = tested on: HS 578T breast
[6] = tested on: SNB-75 CNS
[7] = tested on: UACC-257 melanoma
[8] = tested on: EKVX NSCLC
[9] = tested on: SNB-19 CNS
[10] = tested on: SK-MEL-28 melanoma
[11] = tested on: CAKI-1 renal
[12] = tested on: SK-MEL-5 melanoma

Structure (SMILES)	TGI [1] [µM]	TGI [2] [µM]	TGI [3] [µM]	TGI [4] [µM]	TGI [5] [µM]	TGI [6] [µM]	TGI [7] [µM]	TGI [8] [µM]	TGI [9] [µM]	TGI [10] [µM]	TGI [11] [µM]	TGI [12] [µM]
CCCCCCCCCCCC(=O)OC[C@@H](C[As](=O)(O)O)OC(=O)CCCCCCCCCCC	36.6	36.6	> 30	26.2	29.4	16.6	31.7	28.8	10.8	11.3	23.8	3.91
Cc1ccc(CSC(N)=Nc2ccccc2)cc1C	55.4	52.8	62.9	54.7	49.1	63.9	36.9	75.8	65.9	45.1	60.9	34.9
CC1(C)OP(=O)(O)C=C1Sc1ccc([N+](=O)[O-])cc1[N+](=O)[O-]	> 100	> 100	> 100	> 100	> 100	> 100	> 100	> 100	> 100	> 100	> 100	> 100
